Reference: the NIST ThermoML archive (doi:10.1021/je200373q)

Assay: xn = mol fraction of the nth substance listed
Details: 101 kPa, Liquid, Vibrating tube method

CCCCC [pentane] + CCCCCCCC
mass density [kg/m3]
Details | x1 = 0.1002 | x1 = 0.2008 | x1 = 0.3023 | x1 = 0.4019 | x1 = 0.5001 | x1 = 0.5982 | x1 = 0.7022 | x1 = 0.8003 | x1 = 0.8991
278.15 K | 709.35 | 704.52 | 698.24 | 691.87 | 685.19 | 678 | 669.63 | 660.99 | 651.39
283.15 K | 705.34 | 700.46 | 694.11 | 687.66 | 680.91 | 673.65 | 665.18 | 656.45 | 646.73
288.15 K | 701.31 | 696.38 | 689.94 | 683.43 | 676.6 | 669.26 | 660.68 | 651.85 | 642.04
293.15 K | 697.26 | 692.29 | 685.74 | 679.16 | 672.26 | 664.83 | 656.15 | 647.21 | 637.29
298.15 K | 693.19 | 688.16 | 681.52 | 674.87 | 667.88 | 660.37 | 651.58 | 642.52 | 632.49
303.15 K | 689.09 | 684.01 | 677.28 | 670.54 | 663.47 | 655.87 | 646.96 | 637.79 | 627.64
308.15 K | 684.97 | 679.84 | 673 | 666.19 | 659.03 | 651.33 | 642.31 | 633 | 622.72
313.15 K | 680.83 | 675.63 | 668.7 | 661.8 | 654.59 | 646.75 | 637.61 | 628.16 | 617.96
318.16 K | 676.64 | 671.38 | 664.36 | 657.38 | 650.06 | 642.12 | 632.85 | 623.27 | –
323.16 K | 672.43 | 667.11 | 659.99 | 652.92 | 645.5 | 637.45 | 628.04 | – | –
328.16 K | 668.2 | 662.81 | 655.59 | 648.42 | 640.9 | 632.73 | – | – | –
333.15 K | 663.94 | 658.48 | 651.16 | – | – | – | – | – | –
338.15 K | 659.63 | 654.1 | 646.68 | – | – | – | – | – | –
343.15 K | 655.28 | 649.68 | 642.13 | – | – | – | – | – | –
348.15 K | 650.9 | 645.21 | 637.57 | – | – | – | – | – | –
353.15 K | 646.47 | 640.7 | 632.94 | – | – | – | – | – | –
358.15 K | 642 | 636.15 | 628.27 | – | – | – | – | – | –
363.15 K | 637.48 | 631.54 | 623.54 | – | – | – | – | – | –

CCCCC [pentane] + CCCCCCCCC
mass density [kg/m3]
Details | x1 = 0.1034 | x1 = 0.205 | x1 = 0.3028 | x1 = 0.4006 | x1 = 0.5016 | x1 = 0.5988 | x1 = 0.6992 | x1 = 0.7993 | x1 = 0.8993
273.15 K | 727.17 | 721.15 | 714.81 | 707.86 | 700 | 691.84 | 682.27 | 672.39 | 659.26
278.15 K | 723.31 | 717.24 | 710.84 | 703.82 | 695.88 | 687.64 | 677.96 | 667.97 | 654.69
283.15 K | 719.43 | 713.31 | 706.84 | 699.75 | 691.73 | 683.4 | 673.62 | 663.51 | 650.07
288.15 K | 715.53 | 709.35 | 702.82 | 695.66 | 687.56 | 679.14 | 669.25 | 659.01 | 645.41
293.15 K | 711.62 | 705.38 | 698.79 | 691.54 | 683.36 | 674.84 | 664.84 | 654.47 | 640.71
298.15 K | 707.69 | 701.39 | 694.73 | 687.41 | 679.13 | 670.52 | 660.39 | 649.88 | 635.96
303.15 K | 703.75 | 697.38 | 690.65 | 683.24 | 674.87 | 666.16 | 655.91 | 645.26 | 631.15
308.15 K | 699.78 | 693.35 | 686.54 | 679.05 | 670.58 | 661.76 | 651.39 | 640.58 | 626.28
313.15 K | 695.79 | 689.3 | 682.41 | 674.83 | 666.26 | 657.33 | 646.82 | 635.85 | 621.36
318.15 K | 691.78 | 685.21 | 678.25 | 670.58 | 661.9 | 652.86 | 642.21 | 631.07 | 616.37
323.15 K | 687.74 | 681.1 | 674.06 | 666.29 | 657.51 | 648.34 | 637.54 | 626.24 | –
328.15 K | 683.68 | 676.97 | 669.83 | 661.97 | 653.07 | 643.78 | 632.82 | 621.34 | –
333.15 K | 679.6 | 672.8 | 665.58 | 657.61 | 648.6 | 639.17 | 628.05 | 616.38 | –
338.15 K | 675.48 | 668.6 | 661.28 | 653.21 | 644.08 | 634.51 | – | – | –
343.15 K | 671.34 | 664.37 | 656.96 | 648.78 | – | – | – | – | –
348.15 K | 667.16 | 660.1 | 652.59 | 644.3 | – | – | – | – | –
353.15 K | 662.95 | 655.79 | 648.19 | 639.79 | – | – | – | – | –
358.15 K | 658.7 | 651.45 | 643.74 | – | – | – | – | – | –
363.15 K | 654.42 | 647.07 | 639.25 | – | – | – | – | – | –
